The values that follow come from a melting point compilation (Tetko et al.; mined from patent text by program, amines drawn as free bases though some values may be those of a salt).

The melting point is the temperature of the solid-liquid transition.

Each structure is given as a SMILES string.

`COc1cc(C=CC(=O)Nc2c(-c3ccccc3Cl)c3cc(C(C)C)ccc3n(C)c2=O)cc(OC)c1OC(C)=O` returned a melting point of 187 to 189 °C.
Under `CCCN1CCN(Cc2ccc3c(c2O)OCO3)CC1` stands 115 to 117 °C; under `CSc1nc(=O)n(-c2ccc(Cl)cc2)c(=O)[nH]1`, 292 to 295 °C; under `O=Cc1nc2cnccc2s1`, 96.5 to 98 °C.
As for `CC(C)(C)OC(=O)CN(C(=O)CN1C(=O)c2ccccc2C1=O)c1ccccc1`, the melting point is 126 °C.
In turn, `CCCCCCc1c(C(C)C)nc(C(C)C)c(CO)c1-c1ccc(F)cc1` had a melting point of 93 to 95 °C.
With `CC(C)c1cccc(C(C)C)c1NC(=O)CN1CC2(CCCCC2)N(c2ccccc2)C1=O` the figure was 107 to 109 °C.
With `CCc1nc(/C=C/c2cccc(Cl)c2Cl)no1` the figure was 107 to 109 °C.
Under `O=C1OCCC1N1CCCC1=O` (stereo not given) stands 80 to 81 °C; under `Cc1[nH]c2ccc(OCCN3CCCC3c3cccnc3)cc2c1C(=O)OCc1ccccc1` (stereo not given), 126 to 127 °C.
In turn, `CCN1CCC(c2ccccc2)=C(C(=O)NC)C1` returned a melting point of 103 to 105 °C.
`CCOC(=O)c1cc(C#N)cc(C(F)(F)F)n1` had a melting point of 71.5 °C.
With `CC(C)(C)OC(=O)Cn1c(C(=O)OCc2ccccc2)cc2ccccc21` the figure was 95 to 96 °C; with `CCCCOC(=O)N(C)c1cccc(-c2ccnc3c(C#N)cnn23)c1`, 96 to 97 °C.
With `C=CCC(O)CCCCCCCCCCCCCCCCC` (stereo not given) the figure was 48 to 50.5 °C.
Under `O=C1CCC(c2ccc(-c3ccc(F)cc3)o2)O1` (stereo not given) stands 57 to 59 °C; under `CCOC(=O)/C(=N\O)N1N=C(N)C(Cc2ccccc2)C1=O` (stereo not given), 102 to 108 °C; under `Cc1ccnc(-c2cccc(Br)n2)n1`, 127 °C.
Compound `CCc1nc2c(C)cc(C)nc2n1Cc1ccc(-c2ccccc2-c2c(N(C)C)c(=O)c2=O)cc1` registered a melting point of 140 to 142 °C.
With `CCC(C)n1cc(Cl)nc(N2CCc3cc(OC)cc(Cl)c32)c1=O` (stereo not given) the figure was 143 to 145 °C; with `CC#CCN=C(NC#N)NCCSCc1[nH]cnc1C`, 128 to 130 °C; with `O=C(O)c1cn(C2CC2)c2c(CO)c(N3CCNCC3)c(F)cc2c1=O`, 149 to 152 °C.
In turn, `CON(C)Cc1nc2c(N)nc3ccccc3c2n1CC1(O)CCC1` showed a melting point of 219 to 221 °C.
With `O=Cc1c(F)cc(F)cc1-c1ccc(F)cc1` the figure was 69 to 71 °C.
With `CCCC(=O)C1=C(O)CC(c2c(C)c(C)c(C)c3c2OC(C)C3C)CC1=O` (stereo not given) the figure was 119 to 120 °C.
With `CC(C)(C)C(COC(N)=O)(NC(=O)c1ccccc1)c1c[nH]c2ccc(Br)cc12` (stereo not given) the figure was 187 °C; with `NC(=O)NN=Cc1c(-c2ccccc2)nn2ccccc12`, 221 to 222 °C.
The compound `CCC1SCCCN1C(=S)Nc1cccc(Cl)c1` (stereo not given) gave a melting point of 69 to 73 °C.
Under `O=C1NC(=O)C(Nc2cccc(CCOCc3ccc4ccccc4n3)c2)S1` (stereo not given) stands 167 to 168 °C.
With `CC(C(=O)NC(=O)OC1CCCCC1)(c1ccccc1)c1ccccc1` the figure was 126 °C; with `N#Cc1ccc(NC(=O)C(=O)N2CCC(Cc3ccc(F)cc3)CC2)cc1`, 167 to 169 °C.
With `CCCCn1ccc(C(=O)c2cc(C(C)(C)C)c(O)c(C(C)(C)C)c2)c1` the figure was 101 to 103 °C; with `CC(C)(C)OC(=O)c1ncn2c1[C@@H]1CCCN1C(=O)c1cc(N)ccc1-2`, 223 to 224 °C.
With `COc1ncc(C(=O)N(C)Cc2cc(C(F)(F)F)cc(C(F)(F)F)c2)c(-c2ccccc2)n1`, the melting point lay in the range of 101 to 102 °C.
With `CC(=O)Nc1ccccc1SCc1ncon1` the figure was 89 °C; with `Cc1cc2c(s1)Nc1ccccc1N=C2N1CCN(C)[C@@H](CO)C1`, 118 to 124 °C; with `OCCc1c(C2=CCC(c3ccccc3)(N3CCCC3)CC2)[nH]c2ccc(F)cc12` (stereo not given), 188 to 191 °C.
Under `N#CCOC(=O)c1cc2ccccc2o1` stands 74 to 76 °C; under `O=C(O)C(=O)c1ccc(OCCCCOc2ccc3ccccc3c2)cc1`, 133 to 135 °C.
Under `O=C(O)CCSC1c2ccccc2COc2ccc(OCc3ccc4ccc(OC(F)F)cc4n3)cc21` (stereo not given) stands 180 to 184 °C; under `CCOC(=O)c1c(O)c2cnc(-c3ccccc3)nc2n(CC)c1=O`, 177 to 180 °C.
`CC(=O)SCCNC(=O)[C@H](CSC(=O)C(C)(C)C)NC(=O)C(C)C` displayed a melting point of 101 to 103 °C.
With `O=c1ccc(-c2cccc(-c3ccc(=O)[nH]n3)c2)n[nH]1` the figure was over 250 °C; with `O=C1c2ccccc2-c2c1cccc2-c1nc2ccncc2[nH]1`, 236 to 238 °C; with `CN(Cc1sc2c(=O)c(C(=O)NCc3ccc(Cl)cc3)cn(C)c2c1CN)C[C@@H](O)c1ccccn1`, 144 to 148 °C.
Under `Nc1ccc(Cl)c(N=C2NCCN2)c1` stands 154 to 155 °C.
With `CCOc1cc(N)c(Cl)cc1C(=O)NCC1CN(CC2CCN(C(N)=O)CC2)CCO1` (stereo not given) the figure was 201 to 207 °C; with `COc1cccc2c1sn1c3ccccc3c(=O)cc21`, 245 to 251 °C.
Consider `CC(=O)Oc1ccc(C#Cc2ccccc2)cc1`, for which the melting point fell in the range of 104 to 106 °C.
With `CC(C(=O)NN)c1cn[nH]c1-c1ccc(-c2ccccc2)cc1O` (stereo not given) the figure was 138 to 141 °C; with `CN1CCN(C2=Nc3ccccc3N=C(N3CCN(C)CC3)C2)CC1`, 227 to 228 °C; with `Nc1ccc(C(=O)CCCN2CCC(OC(=O)c3cc(Cl)c(N)c4c3OCC4)CC2)cc1N`, 173 °C.
Under `O=C1Cc2cccc(-c3ccccc3)c2C1` stands 133 to 136 °C; under `CC(C)(C)OC(=O)ON=C(c1ccccc1)c1ccccc1`, 126 to 133 °C; under `Cc1c(-c2cccc(F)c2)sc2nc(N)[nH]c(=O)c12`, 310 to 330 °C.
With `O=C(Cl)OCC1c2c(c3ccccc3c3ccccc23)-c2c1c1ccccc1c1ccccc21` the figure was 188 to 189 °C; with `CN(C)c1cccc(NC(=O)NC2C(=O)N(CC34CC5CC(CC(C5)C3)C4)c3ccccc3N(c3ccccc3)C2=O)c1` (stereo not given), 263 to 265 °C; with `Cc1ccc(S(=O)(=O)CNc2nc(C)cc(C)n2)cc1`, 191 to 194 °C.
Take `CCCc1c(CSc2nccc(OCC(=O)OCC)n2)ccc(C(C)=O)c1O`: the melting point lay in the range of 112 to 117 °C.
With `Cc1ccc2c(c1)CC(=O)N2c1c(F)cc(F)c(F)c1F` the figure was 172 to 173 °C; with `C#Cc1ccc2c(c1)Cc1cc(C#C)ccc1-2`, 125 °C.
Under `C=C(CC(Cl)(Cl)Cl)c1cnc(Cl)c(Cl)c1` stands 76 to 77 °C; under `CC1(C)[C@@H](C(=O)Nc2cc(C(F)(F)F)n[nH]2)[C@@H]1c1ccc(S(N)(=O)=O)cc1` (relative stereo), 210 to 213 °C; under `Nc1cc2c(cc1[N+](=O)[O-])OCC2`, 152 °C.
For the compound `CS(=O)(=O)Nc1nc(CN2CCC(c3c[nH]c4ccccc34)CC2)cs1`, the melting point is 215 to 217 °C.
